This passage reports mutagenic call results from PubChem BioAssay AID1259407 (Chemical Carcinogenesis Research Information System (CCRIS), 2018).

This series concerns CCRIS mutagenicity, Ames/micronucleus/aberration tests. Briefly: CCRIS mutagenicity studies.

Each structure is given as a SMILES string. The source made the active and inactive calls. How the calls were made is not given here.

As to `CCOC(=O)CC1OCCc2c1[nH]c1c(CC)c(O)ccc21` (stereo not given), the mutagenic call is “inactive; negative” (Test System: AMES SALMONELLA TYPHIMURIUM, Strain/Indicator: TA98, Metabolic Activation: NONE, Method: STANDARD PLATE); “inactive; negative” (Test System: AMES SALMONELLA TYPHIMURIUM, Strain/Indicator: TA98, Metabolic Activation: RAT, LIVER, S-9 (10 OR 50 µL/PLATE), Method: STANDARD PLATE); “inactive; negative” (Test System: AMES SALMONELLA TYPHIMURIUM, Strain/Indicator: TA100, Metabolic Activation: NONE, Method: STANDARD PLATE); “inactive; negative” (Test System: AMES SALMONELLA TYPHIMURIUM, Strain/Indicator: TA100, Metabolic Activation: RAT, LIVER, S-9 (10 OR 50 µL/PLATE), Method: STANDARD PLATE); “active; positive” (Test System: AMES SALMONELLA TYPHIMURIUM, Strain/Indicator: TA1535, Metabolic Activation: NONE, Method: STANDARD PLATE); “active; positive” (Test System: AMES SALMONELLA TYPHIMURIUM, Strain/Indicator: TA1535, Metabolic Activation: RAT, LIVER, S-9 (10 OR 50 µL/PLATE), Method: STANDARD PLATE). Besides, the mutagenic call (Test System: AMES SALMONELLA TYPHIMURIUM, Strain/Indicator: TA1537, Metabolic Activation: NONE, Method: STANDARD PLATE) is “inactive; negative”; the mutagenic call (Test System: AMES SALMONELLA TYPHIMURIUM, Strain/Indicator: TA1537, Metabolic Activation: RAT, LIVER, S-9 (10 OR 50 µL/PLATE), Method: STANDARD PLATE) is “inactive; negative”; the mutagenic call (Test System: E. COLI, Strain/Indicator: WP2 UVRA, Metabolic Activation: NONE, Method: STANDARD PLATE) was “inactive; negative”; the mutagenic call (Test System: E. COLI, Strain/Indicator: WP2 UVRA, Metabolic Activation: RAT, LIVER, S-9 (10 OR 50 µL/PLATE), Method: STANDARD PLATE) was “inactive; negative”.
As to `Cc1cc2c(c3ccc4ccccc4c13)CCC2=O`, the mutagenic call by setting is: (Test System: AMES SALMONELLA TYPHIMURIUM, Strain/Indicator: TA98, Metabolic Activation: RAT, LIVER, S-9, AROCLOR 1254, Method: STANDARD PLATE) “active; positive”; (Test System: AMES SALMONELLA TYPHIMURIUM, Strain/Indicator: TA100, Metabolic Activation: RAT, LIVER, MICROSOMES, 15,16-DIHYDRO-11-METHYL-17(H)-CYCLOPENTA[A] PHENANTHREN-17-ONE, Method: STANDARD PLATE) “inactive; negative”; (Test System: AMES SALMONELLA TYPHIMURIUM, Strain/Indicator: TA100, Metabolic Activation: RAT, LIVER, MICROSOMES, BENZO[A]PYRENE, Method: STANDARD PLATE) “active; positive”; (Test System: AMES SALMONELLA TYPHIMURIUM, Strain/Indicator: TA100, Metabolic Activation: RAT, LIVER, MICROSOMES, CLOFIBRATE, Method: STANDARD PLATE) “inactive; negative”; (Test System: AMES SALMONELLA TYPHIMURIUM, Strain/Indicator: TA100, Metabolic Activation: RAT, LIVER, MICROSOMES, DEXAMETHASONE, Method: STANDARD PLATE) “inactive; negative”; (Test System: AMES SALMONELLA TYPHIMURIUM, Strain/Indicator: TA100, Metabolic Activation: RAT, LIVER, MICROSOMES, ISONIAZID, Method: STANDARD PLATE) “inactive; negative”. Further, the mutagenic call is “inactive; negative” (Test System: AMES SALMONELLA TYPHIMURIUM, Strain/Indicator: TA100, Metabolic Activation: RAT, LIVER, MICROSOMES, PHENOBARBITONE, Method: STANDARD PLATE); “inactive; negative” (Test System: AMES SALMONELLA TYPHIMURIUM, Strain/Indicator: TA100, Metabolic Activation: RAT, LIVER, MICROSOMES, Method: STANDARD PLATE); “active; positive” (Test System: AMES SALMONELLA TYPHIMURIUM, Strain/Indicator: TA100, Metabolic Activation: RAT, LIVER, S-9, AROCLOR 1254, Method: STANDARD PLATE); “active; positive” (Test System: AMES SALMONELLA TYPHIMURIUM, Strain/Indicator: TA1538, Metabolic Activation: RAT, LIVER, S-9, AROCLOR 1254, Method: STANDARD PLATE).
Take `CC(C)Oc1ccc(Nc2ccccc2)cc1`: the mutagenic call by setting is: (End Point: IN VITRO CHROMOSOMAL ABERRATIONS, Test System: CHINESE HAMSTER LUNG CELLS (CHL), Metabolic Activation: RAT, LIVER, S-9, KC-400) “inactive; negative; authors describe results as inconclusive”; (End Point: IN VITRO CHROMOSOMAL ABERRATIONS, Test System: CHINESE HAMSTER OVARY CELLS (CHO), Metabolic Activation: NONE) “inactive; negative”; (End Point: IN VITRO CHROMOSOMAL ABERRATIONS, Test System: CHINESE HAMSTER OVARY CELLS (CHO), Metabolic Activation: RAT, LIVER, S-9, AROCLOR 1254) “inactive; negative”; (End Point: IN VITRO CHROMOSOMAL ABERRATIONS, Test System: CHO-LB CELLS, Metabolic Activation: NONE) “inactive; negative”; (End Point: IN VITRO CHROMOSOMAL ABERRATIONS, Test System: CHO-LB CELLS, Metabolic Activation: RAT, LIVER, S-9, AROCLOR 1254) “inactive; negative”; (Test System: AMES SALMONELLA TYPHIMURIUM, Strain/Indicator: TA97, Metabolic Activation: HAMSTER, LIVER, S-9, AROCLOR 1254 (10 OR 30%), Method: PREINCUBATION) “inactive; negative”. In addition, the mutagenic call was “inactive; negative” (Test System: AMES SALMONELLA TYPHIMURIUM, Strain/Indicator: TA97, Metabolic Activation: NONE, Method: PREINCUBATION); “inactive; negative” (Test System: AMES SALMONELLA TYPHIMURIUM, Strain/Indicator: TA97, Metabolic Activation: RAT, LIVER, S-9, AROCLOR 1254 (10 OR 30%), Method: PREINCUBATION); “inactive; negative” (Test System: AMES SALMONELLA TYPHIMURIUM, Strain/Indicator: TA98, Metabolic Activation: HAMSTER, LIVER, S-9, AROCLOR 1254 (10 OR 30%), Method: PREINCUBATION); “inactive; negative” (Test System: AMES SALMONELLA TYPHIMURIUM, Strain/Indicator: TA98, Metabolic Activation: NONE, Method: PREINCUBATION); “inactive; negative” (Test System: AMES SALMONELLA TYPHIMURIUM, Strain/Indicator: TA98, Metabolic Activation: RAT, LIVER, S-9, AROCLOR 1254 (10 OR 30%), Method: PREINCUBATION); “inactive; negative” (Test System: AMES SALMONELLA TYPHIMURIUM, Strain/Indicator: TA100, Metabolic Activation: HAMSTER, LIVER, S-9, AROCLOR 1254 (10 OR 30%), Method: PREINCUBATION). In addition, the mutagenic call is “inactive; negative” (Test System: AMES SALMONELLA TYPHIMURIUM, Strain/Indicator: TA100, Metabolic Activation: NONE, Method: PREINCUBATION); “inactive; negative” (Test System: AMES SALMONELLA TYPHIMURIUM, Strain/Indicator: TA100, Metabolic Activation: RAT, LIVER, S-9, AROCLOR 1254 (10 OR 30%), Method: PREINCUBATION); “inactive; negative” (Test System: AMES SALMONELLA TYPHIMURIUM, Strain/Indicator: TA1535, Metabolic Activation: HAMSTER, LIVER, S-9, AROCLOR 1254 (10 OR 30%), Method: PREINCUBATION); “inactive; negative” (Test System: AMES SALMONELLA TYPHIMURIUM, Strain/Indicator: TA1535, Metabolic Activation: NONE, Method: PREINCUBATION); “inactive; negative” (Test System: AMES SALMONELLA TYPHIMURIUM, Strain/Indicator: TA1535, Metabolic Activation: RAT, LIVER, S-9, AROCLOR 1254 (10 OR 30%), Method: PREINCUBATION).
As to `CCCCCCCCCCOC[N+](C)(C)Cc1ccccc1`, the mutagenic call by setting is: (Test System: BACILLUS SUBTILIS, Strain/Indicator: H17/REC, Metabolic Activation: NONE, Method: STANDARD PLATE) “inactive; negative”; (Test System: BACILLUS SUBTILIS, Strain/Indicator: M45, Metabolic Activation: NONE, Method: STANDARD PLATE) “inactive; negative”.
On to `Cc1ccc2nc3ccccc3c(N)c2c1`, for which the mutagenic call (Test System: AMES SALMONELLA TYPHIMURIUM, Strain/Indicator: TA1537, Metabolic Activation: NONE, Method: PREINCUBATION) was “active; positive”.
